Patent publication US20260217735A1, “HETEROCYCLES AND USES THEREOF” (Kumquat Biosciences Inc., priority 2023, published 2026)

Key:
KRAS G12D = target: T1, KRAS G12D (Homo sapiens, UniProt P01116, G12D); test: HTRF assay, KRAS G12D interaction with SOS1; format: biochemical; conditions: bins <500 nM / 500 nM to 1000 nM, read-out: Inhibition of KRAS G12D (IC50)
T1 construct: made in house; host or cells: E. coli, e.g. BL21 (DE3)

KRAS WT = target: T2, KRAS WT (Homo sapiens, UniProt P01116); test: HTRF assay, wildtype KRAS interaction with SOS1; format: biochemical; conditions: bins <500 nM / 500 nM to 1000 nM, read-out: Inhibition of KRAS WT (IC50)
T2 construct: made in house; host or cells: E. coli, e.g. BL21 (DE3)

KRAS G12V = target: T3, KRAS G12V (Homo sapiens, UniProt P01116, G12V); test: HTRF assay, KRAS G12V interaction with SOS1; format: biochemical; conditions: bins <500 nM / 500 nM to 1000 nM, read-out: Inhibition of KRAS G12V (IC50)
T3 construct: made in house; host or cells: E. coli, e.g. BL21 (DE3)

KRAS G12S = target: T4, KRAS G12S (Homo sapiens, UniProt P01116, G12S); test: HTRF assay, KRAS G12S interaction with SOS1; format: biochemical; conditions: bins <500 nM / 500 nM to 1000 nM, read-out: Inhibition of KRAS G12S (IC50)
T4 construct: made in house; host or cells: E. coli, e.g. BL21 (DE3)

MiaPaca2 cells = test: Ras cellular assay, growth of cells with K-Ras G12C mutation; format: cell-based; conditions: Homo sapiens, MIA PaCa-2; cell proliferation assay; bins ≤500 nM / >500 nM; read-out: Inhibition of MiaPaca2 Cells (IC50)
Summary of the method: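 Anchorage-independent growth: G12C-mutant MIA PaCa-2 plated in soft agar, time-zero plate read the next day when compound was dosed (final DMSO 0.3%). After growth to day 10, MTS-type absorbance at 490/660 nm relative to time zero gave IC50 via four-parameter fitting.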

T2 sequence (P01116 1-188 isoform P01116-2): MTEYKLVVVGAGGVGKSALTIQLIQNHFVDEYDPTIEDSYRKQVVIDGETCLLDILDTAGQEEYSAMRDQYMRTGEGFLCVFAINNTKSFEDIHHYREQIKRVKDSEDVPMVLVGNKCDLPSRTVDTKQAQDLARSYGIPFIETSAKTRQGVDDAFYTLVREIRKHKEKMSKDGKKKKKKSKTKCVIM
T3 sequence (P01116 1-188 isoform P01116-2 G12V): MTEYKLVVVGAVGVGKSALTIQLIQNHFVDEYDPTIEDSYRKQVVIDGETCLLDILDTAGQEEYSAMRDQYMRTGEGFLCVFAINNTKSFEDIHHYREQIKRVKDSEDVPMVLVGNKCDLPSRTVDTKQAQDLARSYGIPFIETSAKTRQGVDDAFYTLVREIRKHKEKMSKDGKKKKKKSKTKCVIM
T4 sequence (P01116 1-188 isoform P01116-2 G12S): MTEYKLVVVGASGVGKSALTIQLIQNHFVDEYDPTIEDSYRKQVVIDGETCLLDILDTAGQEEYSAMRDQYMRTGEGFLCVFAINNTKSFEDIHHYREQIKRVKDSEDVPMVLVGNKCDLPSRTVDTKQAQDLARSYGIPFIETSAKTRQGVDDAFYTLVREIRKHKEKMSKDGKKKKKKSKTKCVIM
T1 sequence (P01116 1-188 isoform P01116-2 G12D): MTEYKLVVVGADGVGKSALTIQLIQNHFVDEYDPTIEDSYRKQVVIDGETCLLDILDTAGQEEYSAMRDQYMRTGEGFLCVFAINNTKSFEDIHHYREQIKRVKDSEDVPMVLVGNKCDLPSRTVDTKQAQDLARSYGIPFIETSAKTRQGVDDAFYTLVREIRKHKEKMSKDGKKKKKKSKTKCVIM

SMILES | IC50 (KRAS G12D) | IC50 (KRAS WT) | IC50 (KRAS G12V) | IC50 (KRAS G12S) | IC50 (MiaPaca2 cells)
CCN(c1nc(OC[C@@]23CCCN2C[C@H](F)C3)nc2c(F)c(-c3cc(N)c(F)c(C)c3C(F)(F)F)ncc12)[C@@H]1CCN(C(=O)n2cc(C)nc2C)[C@@H]1C [Compound 196, ((2R,3R)-3-((7-(5-amino-4-fluoro-3-methyl-2-(trifluoromethyl)phenyl)-8-fluoro-2-(((2R,7aS)-2-fluorotetrahydro-1H-pyrrolizin-7a(5H)-yl)methoxy)pyrido[4,3-d]pyrimidin-4-yl)(ethyl)amino)-2-methylpyrrolidin-1-yl)(2,4-dimethyl-1H-imidazol-1-yl)methanone] | 500 to 1000 nM | < 500 nM | < 500 nM | < 500 nM | ≤ 500 nM
CCN(c1nc(OC[C@@]23CCCN2C[C@H](F)C3)nc2c(F)c(-c3ccc(F)c4sc(N)c(C#N)c34)c(Cl)cc12)[C@@H]1CCN(C(=O)n2cc(C)nc2Cl)[C@@H]1C [Compound 137, 2-amino-4-(6-chloro-4-(((2R,3R)-1-(2-chloro-4-methyl-1H-imidazole-1-carbonyl)-2-methylpyrrolidin-3-yl)(ethyl)amino)-8-fluoro-2-(((2R,7aS)-2-fluorotetrahydro-1H-pyrrolizin-7a(5H)-yl)methoxy)quinazolin-7-yl)-7-fluorobenzo[b]thiophene-3-carbonitrile] | < 500 nM | < 500 nM | < 500 nM | < 500 nM | ≤ 500 nM
CC[C@@H]1[C@H](N(CC)c2nc(OC[C@@]34CCCN3C[C@H](F)C4)nc3c(F)c(-c4ccc(F)c5sc(N)c(C#N)c45)c(Cl)cc23)CCN1C(=O)n1cnc(F)n1 [Compound 168, 2-amino-4-(6-chloro-4-(ethyl((2R,3R)-2-ethyl-1-(3-fluoro-1H-1,2,4-triazole-1-carbonyl)pyrrolidin-3-yl)amino)-8-fluoro-2-(((2R,7aS)-2-fluorotetrahydro-1H-pyrrolizin-7a(5H)-yl)methoxy)quinazolin-7-yl)-7-fluorobenzo[b]thiophene-3-carbonitrile] | < 500 nM | < 500 nM | < 500 nM | < 500 nM | ≤ 500 nM
Cc1nc(C#N)cn1C(=O)N1CC2CCN(c3nc(OC[C@@]45CCCN4C[C@H](F)C5)nc4c(F)c(-c5ccc(F)c6sc(N)c(C#N)c56)c(Cl)cc34)C2C1 (stereo partly drawn) [Compound 192, 1-(1-(7-(2-amino-3-cyano-7-fluorobenzo[b]thiophen-4-yl)-6-chloro-8-fluoro-2-(((2R,7aS)-2-fluorotetrahydro-1H-pyrrolizin-7a(5H)-yl)methoxy)quinazolin-4-yl)octahydropyrrolo[3,4-b]pyrrole-5-carbonyl)-2-methyl-1H-imidazole-4-carbonitrile] | < 500 nM | < 500 nM | < 500 nM | < 500 nM | ≤ 500 nM
CCN(c1nc(OC[C@@]23CCCN2C[C@@]2(CC2(F)F)C3)nc2c(F)c(-c3ccc(F)c4sc(N)c(C#N)c34)c(C(F)(F)F)cc12)[C@@H]1CCN(C(=O)n2cnc(F)n2)[C@@H]1C [Compound 212, 2-amino-4-(2-(((1S,7a′S)-2,2-difluorodihydro-1′H,3′H-spiro[cyclopropane-1,2′-pyrrolizin]-7a′(5′H)-yl)methoxy)-4-(ethyl((2R,3R)-1-(3-fluoro-1H-1,2,4-triazole-1-carbonyl)-2-methylpyrrolidin-3-yl)amino)-8-fluoro-6-(trifluoromethyl)quinazolin-7-yl)-7-fluorobenzo[b]thiophene-3-carbonitrile] | < 500 nM | < 500 nM | < 500 nM | < 500 nM | ≤ 500 nM
CCN(c1nc(OC[C@@]23CCCN2C[C@H](F)C3)nc2c(F)c(-c3ccc(F)c4sc(N)c(C#N)c34)ncc12)[C@@H]1CCN(C(=O)n2cnc(Cl)n2)[C@@H]1C [Compound 177, 2-amino-4-(4-(((2R,3R)-1-(3-chloro-1H-1,2,4-triazole-1-carbonyl)-2-methylpyrrolidin-3-yl)(ethyl)amino)-8-fluoro-2-(((2R,7aS)-2-fluorotetrahydro-1H-pyrrolizin-7a(5H)-yl)methoxy)pyrido[4,3-d]pyrimidin-7-yl)-7-fluorobenzo[b]thiophene-3-carbonitrile] | < 500 nM | < 500 nM | < 500 nM | < 500 nM | ≤ 500 nM

More lines, now with the values ahead:

IC50 (KRAS G12D) | IC50 (KRAS WT) | IC50 (KRAS G12V) | IC50 (KRAS G12S) | IC50 (MiaPaca2 cells) | SMILES
< 500 nM | < 500 nM | < 500 nM | < 500 nM | ≤ 500 nM | CCN(c1nc(OC[C@@]23CCCN2C[C@H](F)C3)nc2c(F)c(-c3ccc(F)c4sc(N)c(C#N)c34)c(Cl)cc12)[C@@H]1CCN(C(=O)n2ccc(C#N)n2)[C@@H]1C [Compound 136, 1-((2R,3R)-3-((7-(2-amino-3-cyano-7-fluorobenzo[b]thiophen-4-yl)-6-chloro-8-fluoro-2-(((2R,7aS)-2-fluorotetrahydro-1H-pyrrolizin-7a(5H)-yl)methoxy)quinazolin-4-yl)(ethyl)amino)-2-methylpyrrolidine-1-carbonyl)-1H-pyrazole-3-carbonitrile]
< 500 nM | < 500 nM | < 500 nM | < 500 nM | ≤ 500 nM | C[C@@H]1[C@H](N(C)c2nc(OC[C@@]34CCCN3C[C@H](F)C4)nc3c(F)c(-c4ccc(F)c5sc(N)c(C#N)c45)c(Cl)cc23)CCN1C(=O)n1cnc(CC#N)c1 [Compound 183, 2-amino-4-(6-chloro-4-(((2R,3R)-1-(4-(cyanomethyl)-1H-imidazole-1-carbonyl)-2-methylpyrrolidin-3-yl)(methyl)amino)-8-fluoro-2-(((2R,7aS)-2-fluorotetrahydro-1H-pyrrolizin-7a(5H)-yl)methoxy)quinazolin-7-yl)-7-fluorobenzo[b]thiophene-3-carbonitrile]
< 500 nM | < 500 nM | < 500 nM | < 500 nM | ≤ 500 nM | C[C@@H]1[C@H](N(C)c2nc(OC[C@@]34CCCN3C[C@H](F)C4)nc3c(F)c(-c4ccc(F)c5sc(N)c(C#N)c45)c(Cl)cc23)CCN1C(=O)n1cnc(C2CC2)c1 [Compound 135, 2-amino-4-(6-chloro-4-(((2R,3R)-1-(4-cyclopropyl-1H-imidazole-1-carbonyl)-2-methylpyrrolidin-3-yl)(methyl)amino)-8-fluoro-2-(((2R,7aS)-2-fluorotetrahydro-1H-pyrrolizin-7a(5H)-yl)methoxy)quinazolin-7-yl)-7-fluorobenzo[b]thiophene-3-carbonitrile]
< 500 nM | < 500 nM | < 500 nM | < 500 nM | ≤ 500 nM | CCN(c1nc(OC[C@@]23CCCN2C[C@H](F)C3)nc2c(F)c(-c3ccc(F)c4sc(N)c(C#N)c34)c(Cl)cc12)[C@@H]1CCN(C(=O)n2cc(Cl)nc2C)[C@@H]1C [Compound 130, 2-amino-4-(6-chloro-4-(((2R,3R)-1-(4-chloro-2-methyl-1H-imidazole-1-carbonyl)-2-methylpyrrolidin-3-yl)(ethyl)amino)-8-fluoro-2-(((2R,7aS)-2-fluorotetrahydro-1H-pyrrolizin-7a(5H)-yl)methoxy)quinazolin-7-yl)-7-fluorobenzo[b]thiophene-3-carbonitrile]
< 500 nM | < 500 nM | < 500 nM | < 500 nM | ≤ 500 nM | C[C@@H]1[C@H](N(C)c2nc(OC[C@@]34CCCN3C[C@H](F)C4)nc3c(F)c(-c4ccc(F)c5sc(N)c(C#N)c45)c(Cl)cc23)CCN1C(=O)n1cnc(Cl)c1 [Compound 211, 2-amino-4-(6-chloro-4-(((2R,3R)-1-(4-chloro-1H-imidazole-1-carbonyl)-2-methylpyrrolidin-3-yl)(methyl)amino)-8-fluoro-2-(((2R,7aS)-2-fluorotetrahydro-1H-pyrrolizin-7a(5H)-yl)methoxy)quinazolin-7-yl)-7-fluorobenzo[b]thiophene-3-carbonitrile]
< 500 nM | < 500 nM | < 500 nM | < 500 nM | ≤ 500 nM | C[C@@H]1[C@H](N(C)c2nc(OC[C@@]34CCCN3C[C@H](F)C4)nc3c(F)c(-c4ccc(F)c5sc(N)c(C#N)c45)c(Cl)cc23)CCN1C(=O)n1ccnc1C#N [Compound 176, 1-((2R,3R)-3-((7-(2-amino-3-cyano-7-fluorobenzo[b]thiophen-4-yl)-6-chloro-8-fluoro-2-(((2R,7aS)-2-fluorotetrahydro-1H-pyrrolizin-7a(5H)-yl)methoxy)quinazolin-4-yl)(methyl)amino)-2-methylpyrrolidine-1-carbonyl)-1H-imidazole-2-carbonitrile]
< 500 nM | < 500 nM | < 500 nM | < 500 nM | ≤ 500 nM | CC(C)[C@@H]1[C@H](N(C)c2nc(OC[C@@]34CCCN3C[C@H](F)C4)nc3c(F)c(-c4ccc(F)c5sc(N)c(C#N)c45)c(Cl)cc23)CCN1C(=O)n1ccnc1 [Compound 169, 4-(4-(((2R,3R)-1-(1H-imidazole-1-carbonyl)-2-isopropylpyrrolidin-3-yl)(methyl)amino)-6-chloro-8-fluoro-2-(((2R,7aS)-2-fluorotetrahydro-1H-pyrrolizin-7a(5H)-yl)methoxy)quinazolin-7-yl)-2-amino-7-fluorobenzo[b]thiophene-3-carbonitrile]
